Results from PubChem BioAssay AID330 (DTP/NCI, 2004).
Values joined by “and” are separate entries in the source; they are usually repeats but may differ in a detail not shown here. Identical values can stand only once. Inconclusive results and toxic doses are left out.

System: P388 leukemia ip, CD2F1 mice, survival T/C
Assay: NCI In Vivo Anticancer Drug Screen. Data for tumor model P388 Leukemia (intraperitoneal) in CD2F1 (CDF1) mice
Details: endpoint: median survival time, higher = longer survival
Outline: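 Mice carrying the transplanted tumor received test compound or vehicle. Survival was recorded in each group, and the value is the treated-group measurement divided by that of the vehicle-treated control group.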

[1] = dose: 100.0 mg/kg/injection, schedule: Q04DX003 (ip), vehicle: Klucel (hydroxypropylcellulose) (HPC)

O=c1[nH]c(=S)[nH]c2nccnc12 was tested, and the T/C [1] was 105 % of control, the T/C (dose: 200.0 mg/kg/injection, schedule: Q04DX003 (ip), vehicle: Klucel (hydroxypropylcellulose) (HPC)) was 118 % of control and the T/C (dose: 400.0 mg/kg/injection, schedule: Q04DX003 (ip), vehicle: Klucel (hydroxypropylcellulose) (HPC)) was 112 % of control.
With CC(C)(C)OC(=O)NC(N)=NCCCC(NC(=O)OC(C)(C)C)C(=O)O (stereo not given) the T/C (dose: 50.0 mg/kg/injection, schedule: Q01DX005 (ip), vehicle: saline with Tween-80) was 100 % of control, the T/C (dose: 100.0 mg/kg/injection, schedule: Q01DX005 (ip), vehicle: saline with Tween-80) was 103 % of control and the T/C (dose: 200.0 mg/kg/injection, schedule: Q01DX005 (ip), vehicle: saline with Tween-80) was 102 % of control.
For NNC12CCC(c3ccccc31)c1ccccc12, the T/C (dose: 50.0 mg/kg/injection, schedule: Q04DX003 (ip), vehicle: saline with Tween-80) was 95 % of control, the T/C (dose: 100.0 mg/kg/injection, schedule: Q04DX003 (ip), vehicle: saline with Tween-80) was 110 % of control and the T/C (dose: 200.0 mg/kg/injection, schedule: Q04DX003 (ip), vehicle: saline with Tween-80) was 110 % of control.
CCOC(=CP(=O)(c1ccccc1)c1ccccc1)OCC was tested, and the T/C (dose: 50.0 mg/kg/injection, schedule: Q01DX005 (ip), vehicle: distilled water + Tween-80 + alcohol) was 106 % of control, the T/C (dose: 100.0 mg/kg/injection, schedule: Q01DX005 (ip), vehicle: distilled water + Tween-80 + alcohol) was 105 % of control and the T/C (dose: 200.0 mg/kg/injection, schedule: Q01DX005 (ip), vehicle: distilled water + Tween-80 + alcohol) was 100 % of control.
For Cc1cc(C)c2ccc(NN=O)nc2n1, the T/C (dose: 3.12 mg/kg/injection, schedule: Q01DX009 (ip), vehicle: water) was 118 % of control, the T/C (dose: 12.5 mg/kg/injection, schedule: Q01DX009 (ip), vehicle: water) was 163 % of control and the T/C (dose: 25.0 mg/kg/injection, schedule: Q01DX009 (ip), vehicle: water) was 167 % of control and 169 % of control.
In the case of COC(=O)C1=C(C(=O)OC)C2(C)NC1(C)c1c(C)ccc(C)c12, the T/C (dose: 42.5 mg/kg/injection, schedule: Q01DX001 (ip), vehicle: saline with Tween-80) is reported as 103 % of control, the T/C (dose: 85.0 mg/kg/injection, schedule: Q01DX001 (ip), vehicle: saline with Tween-80) is reported as 94 % of control and the T/C (dose: 170.0 mg/kg/injection, schedule: Q01DX001 (ip), vehicle: saline with Tween-80) is reported as 89 % of control.
With O=C(N/N=C/C(O)C1OC(=O)C(O)C1O)c1ccncc1 (stereo not given) the T/C (dose: 50.0 mg/kg/injection, schedule: Q01DX005 (ip), vehicle: Klucel (hydroxypropylcellulose) (HPC)) was 105 % of control, the T/C (dose: 100.0 mg/kg/injection, schedule: Q01DX005 (ip), vehicle: Klucel (hydroxypropylcellulose) (HPC)) was 101 % of control and the T/C (dose: 200.0 mg/kg/injection, schedule: Q01DX005 (ip), vehicle: Klucel (hydroxypropylcellulose) (HPC)) was 99 % of control.
In the case of COc1ccc(C(SCC(N)C(=O)O)(c2ccccc2)c2ccccc2)cc1 (stereo not given), the T/C (dose: 66.0 mg/kg/injection, schedule: Q04DX003 (ip), vehicle: Klucel (hydroxypropylcellulose) (HPC)) is reported as 105 % of control and the T/C [1] is reported as 150 % of control.
With O=C(c1cc(Cl)c(Cl)c([N+](=O)[O-])c1Cl)C(Cl)Cl the T/C (dose: 25.0 mg/kg/injection, schedule: Q04DX003 (ip), vehicle: Klucel (hydroxypropylcellulose) (HPC)) was 104 % of control, the T/C (dose: 50.0 mg/kg/injection, schedule: Q04DX003 (ip), vehicle: Klucel (hydroxypropylcellulose) (HPC)) was 99 % of control and the T/C [1] was 103 % of control.
In the case of CCOC(=O)CCC(NC(=O)c1ccc(I)cc1)C(=O)OCC (stereo not given), the T/C (dose: 50.0 mg/kg/injection, schedule: Q01DX009 (ip), vehicle: Klucel (hydroxypropylcellulose) (HPC)) is reported as 100 % of control, the T/C (dose: 100.0 mg/kg/injection, schedule: Q01DX009 (ip), vehicle: Klucel (hydroxypropylcellulose) (HPC)) is reported as 93 % of control and the T/C (dose: 200.0 mg/kg/injection, schedule: Q01DX009 (ip), vehicle: Klucel (hydroxypropylcellulose) (HPC)) is reported as 102 % of control.
CCOc1cnco1 was tested, and the T/C (dose: 100.0 mg/kg/injection, schedule: Q04DX002 (ip), vehicle: saline) was 99 % of control, the T/C (dose: 200.0 mg/kg/injection, schedule: Q04DX002 (ip), vehicle: saline) was 100 % of control and the T/C (dose: 400.0 mg/kg/injection, schedule: Q04DX002 (ip), vehicle: saline) was 112 % of control.
With O=S(=O)(c1cc(Cl)ccc1Cl)N(CCCCCN(S(=O)(=O)c1cc(Cl)ccc1Cl)S(=O)(=O)c1cc(Cl)ccc1Cl)S(=O)(=O)c1cc(Cl)ccc1Cl the T/C (dose: 60.0 mg/kg/injection, schedule: Q01DX005 (ip), vehicle: saline with Tween-80) was 99 % of control, the T/C (dose: 120.0 mg/kg/injection, schedule: Q01DX005 (ip), vehicle: saline with Tween-80) was 96 % of control and the T/C (dose: 240.0 mg/kg/injection, schedule: Q01DX005 (ip), vehicle: saline with Tween-80) was 95 % of control.
